Test results as given in patent publication US20130095194A1 (L'Air Liquide, Société Anonyme pour I'Etude et …, priority 2011, published 2013).

Test system: neuropathic pain caused by oxaliplatin in rats
Assay: Randall-Selitto pain thresholds in rats given repeated intraperitoneal oxaliplatin (chemo-induced neuropathic pain model)
Experimental: A preclinical study in rats was carried out.
In order to mimic the clinical use as closely as possible, a series of 8 intraperitoneal injections of oxaliplatin were given every 3 to 4 days, as illustrated in FIG. 2. This model is well known in the literature and gives an account of chemo-induced neuropathic pain.
The pain thresholds were evaluated by means of a Randall-Selitto device by applying an increasing pressure to the paw of the rat until the animal lets out a cry. The corresponding weight in grams is then noted (the Y-axis in FIG. 2). Thus, the earlier the animal cries out, for a low weight, the more pain it has.

SMILES | hypersensitivity to pain (pain threshold curve versus control group A) (rats given oxaliplatin 2 mg/kg, gas/O2 (50%-50%) inhaled for 1 hour with each administration) | pain thresholds (Randall-Selitto, weight at which the animal cries out) (group B: oxaliplatin 2 mg/kg, 8 intraperitoneal injections every 3 to 4 days, with N2/O2 (50%-50%) control gas for 1 hour, control group A 200 g) | persistence of hypersensitivity to pain after the final administration of oxaliplatin (group B, final administration on D25, still present on D42)
[Xe] [xenon] | no sign of hypersensitivity to pain | – | –
O=C1[O][Pt]2([NH][C@@H]3CCCC[C@H]3[NH]2)[O]C1=O [oxaliplatin] | – | approximately 150 g | more than 2 weeks
